Laboratory results from US9758538B2, “Pyrimidine derivatives” (PFIZER INC., priority 2015, dated 2017).
pKi: −log10 of the molar value.

molecular target: truncated PI3Kα (p110α/iSH2 p85α), PI3KA_Act (Homo sapiens (Human), UniProt P42336); test: PI3Kα biochemical kinase assay, fluorescence polarization format (PI3KA_Act); conditions: 0.5 nM p110α/iSH2 p85, 1 mM ATP, 30 μM PIP2, 15-min preincubation; Morrison equation fit; read-out: PI3KA_Act Ki
Protocol: Enzyme Production for Biochemical Assay: p110α-iSH2 p85α Complex (Full Length p110α and p85α iSH2)(“PI3KA Act”)
Gene encoding p110α subunit was subcloned into polyhedrine promoter while gene encoding p85α niSH2 domains was subcloned into p10 promoter. […] Recombinant baculovirus was generated using Bac-to-Bac protocol (Life Technologies, Carlsbad, Calif.). Large scale expression was conducted in Sf21 (Life Technologies, Carlsbad, Calif.) cells at a multiplicity of infection (“MOI”)=1 for 48 hours. Cells were lyzed in 50 mM Tris pH 8.0, 250 mM NaCl, 5% glycerol, 0.25 mM TCEP, and 20 mM imidazole. The p110α-niSH2 p85α complex was purified from clarified supernatant using Immobilized Metalo Affinity Chromatography (“IMAC”). The protein was eluted from the column using 50 mM Tris pH 8.0, 200 mM NaCl, 0.25 mM TCEP, and 200 mM imidazole. Following elution p110α-niSH2 p85α complex was dialyzed against 4 liters of 50 mM Tris pH 8.0, 200 mM NaCl, 0.25 mM TCEP, and 40 mM imidazole in the presence of PreScission Protease (1:70 molar ratio of Protease to Protein) and TEV protease (1:40 molar ratio protease to protein) for 16 hours at 4° C. The protein was further purified using reverse IMAC to remove cleaved histidine tag and contaminants captured during initial IMAC purification. The mixture of p110α-iSH2 p85α complex and cleaved nSH2 was recovered in reverse IMAC 40 mM imidazole flow through and 60 mM imidazole wash fractions. Those fractions were pulled together and loaded on Superdex 200 26/60 SEC column equilibrated in 25 mM Tris, pH 8.0, 100 mM NaCl, 2% glycerol, and 2 mM TCEP.
The enzymatic reactions were conducted in 50 μL volumes in 96-well plates. […] The reactions were incubated for 30 min at room temperature, stopped with EDTA pH 8 (10 mM final concentration). […] The plate was shaken for 30 minutes and fluorescence polarization values were measured on an LJL Analyst HT plate reader (Molecular Devices, Sunnyvale, Calif.).

Sequence of truncated PI3Kα (p110α/iSH2 p85α), PI3KA_Act (P42336 whole entry, the tested form may be a part): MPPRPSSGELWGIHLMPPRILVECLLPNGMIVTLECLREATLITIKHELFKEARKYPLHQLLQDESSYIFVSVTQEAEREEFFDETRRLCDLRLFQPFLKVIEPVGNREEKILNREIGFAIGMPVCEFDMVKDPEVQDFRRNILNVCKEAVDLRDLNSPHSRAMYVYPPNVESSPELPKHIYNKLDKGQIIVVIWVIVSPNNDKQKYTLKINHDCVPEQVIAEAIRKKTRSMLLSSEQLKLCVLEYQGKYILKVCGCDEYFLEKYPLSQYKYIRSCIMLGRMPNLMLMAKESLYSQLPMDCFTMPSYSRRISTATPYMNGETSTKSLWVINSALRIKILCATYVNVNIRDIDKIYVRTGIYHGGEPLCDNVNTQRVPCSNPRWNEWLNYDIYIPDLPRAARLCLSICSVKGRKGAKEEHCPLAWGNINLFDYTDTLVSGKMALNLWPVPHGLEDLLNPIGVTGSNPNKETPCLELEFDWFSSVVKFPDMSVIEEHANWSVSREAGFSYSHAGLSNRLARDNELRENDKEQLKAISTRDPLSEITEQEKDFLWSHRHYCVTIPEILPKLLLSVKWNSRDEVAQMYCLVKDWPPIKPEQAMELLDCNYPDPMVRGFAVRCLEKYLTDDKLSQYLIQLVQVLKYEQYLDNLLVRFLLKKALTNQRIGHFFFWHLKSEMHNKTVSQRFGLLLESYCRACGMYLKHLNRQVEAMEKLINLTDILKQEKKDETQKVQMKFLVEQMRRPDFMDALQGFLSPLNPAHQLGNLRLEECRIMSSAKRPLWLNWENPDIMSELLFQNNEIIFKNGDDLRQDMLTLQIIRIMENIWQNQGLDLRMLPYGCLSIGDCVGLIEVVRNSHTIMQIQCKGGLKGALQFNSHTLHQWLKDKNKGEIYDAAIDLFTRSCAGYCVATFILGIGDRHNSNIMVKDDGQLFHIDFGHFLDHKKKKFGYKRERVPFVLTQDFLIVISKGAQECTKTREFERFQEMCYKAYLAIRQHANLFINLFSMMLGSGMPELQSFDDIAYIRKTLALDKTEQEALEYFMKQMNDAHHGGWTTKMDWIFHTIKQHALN

| pKi | Structure (SMILES) |
| --- | --- |
| 9.89 | CC(C)(C)OC(=O)N1CC(CO)(Nc2cc(-c3cnc(N)nc3)nc(N3CCOCC3)n2)C1 [Example 41, tert-butyl 3-{[2′-amino-2-(morpholin-4-yl)-4,5′-bipyrimidin-6-yl]amino}-3-(hydroxymethyl)azetidine-1-carboxylate] |
| 8.62 | Nc1ncc(-c2cc(N[C@]3(CO)CCNC3)nc(N3CCOCC3)n2)cn1 [Example 30, [(3R)-3-{[2′-amino-2-(morpholin-4-yl)-4,5′-bipyrimidin-6-yl]amino}pyrrolidin-3-yl]methanol] |
| 10.17 | Nc1ncc(-c2nc(N3CCOCC3)nc(N[C@@]3(CO)CCN(C(=O)OC4CC4)C3)c2F)cn1 [Example 101, cyclopropyl (3S)-3-{[2′-amino-5-fluoro-2-(morpholin-4-yl)-4,5′-bipyrimidin-6-yl]amino}-3-(hydroxymethyl)pyrrolidine-1-carboxylate] |
| > 10.74 | COC(=O)N1CCC[C@](CO)(Nc2cc(-c3cnc(N)nc3)nc(N3CCOCC3)n2)C1 [Example 5, methyl (3S)-3-{[2′-amino-2-(morpholin-4-yl)-4,5′-bipyrimidin-6-yl]amino}-3-(hydroxymethyl)piperidine-1-carboxylate] |
| 9.99 | Nc1ncc(-c2nc(N3CCOCC3)nc(N[C@@]3(CO)CCCN(C(=O)C4(F)CC4)C3)c2F)cn1 [Example 159, [(3S)-3-{[2′-amino-5-fluoro-2-(morpholin-4-yl)-4,5′-bipyrimidin-6-yl]amino}-3-(hydroxymethyl)piperidin-1-yl](1-fluorocyclopropyl)methanone] |
| 10.57 | Nc1ncc(-c2nc(N[C@@]3(CO)CCN(C(=O)OCC(F)F)C3)nc(N3CCOCC3)n2)cn1 [Example 99, 2,2-difluoroethyl (3S)-3-{[4-(2-aminopyrimidin-5-yl)-6-(morpholin-4-yl)-1,3,5-triazin-2-yl]amino}-3-(hydroxymethyl)pyrrolidine-1-carboxylate] |
| 9.98 | CC(C)(C)OC(=O)N1CC[C@](CO)(Nc2nc(-c3cnc(N)nc3)nc(N3CCOCC3)n2)C1 [Example 39, tert-butyl (3S)-3-{[4-(2-aminopyrimidin-5-yl)-6-(morpholin-4-yl)-1,3,5-triazin-2-yl]amino}-3-(hydroxymethyl)pyrrolidine-1-carboxylate] |
| 8.57 | C[C@H]1COCCN1c1nc(NC2(CO)CNC2)cc(-c2cnc(N)nc2)n1 [Example 54, [3-({2′-amino-2-[(3S)-3-methylmorpholin-4-yl]-4,5′-bipyrimidin-6-yl}amino)azetidin-3-yl]methanol] |
| 9.15 | CC(C)(C)NC(=O)N1CC[C@](CO)(Nc2cc(-c3cnc(N)nc3)nc(N3CCOCC3)n2)C1 [Example 48, (3S)-3-{[2′-amino-2-(morpholin-4-yl)-4,5′-bipyrimidin-6-yl]amino}-N-tert-butyl-3-(hydroxymethyl)pyrrolidine-1-carboxamide] |

The remaining lines, values behind:

| Structure (SMILES) | pKi |
| --- | --- |
| Nc1ncc(-c2cc(N[C@@]3(CO)CCN(C(=O)C4(F)CC4)C3)nc(N3CCOCC3)n2)cn1 [Example 56, [(3S)-3-{[2′-amino-2-(morpholin-4-yl)-4,5′-bipyrimidin-6-yl]amino}-3-(hydroxymethyl)pyrrolidin-1-yl](1-fluorocyclopropyl)methanone] | > 10.74 |
| Nc1ncc(-c2cc(N[C@@]3(CO)CCN(CC(F)F)C3)nc(N3CCOCC3)n2)cn1 [Example 67, [(3S)-3-{[2′-amino-2-(morpholin-4-yl)-4,5′-bipyrimidin-6-yl]amino}-1-(2,2-difluoroethyl)pyrrolidin-3-yl]methanol] | 8.82 |
| CC[C@@]1(Nc2cc(-c3cnc(N)nc3)nc(N3CCOCC3)n2)CCN(C(=O)C2(F)CC2)C1 [Example 94, [(3R)-3-{[2′-amino-2-(morpholin-4-yl)-4,5′-bipyrimidin-6-yl]amino}-3-ethylpyrrolidin-1-yl](1-fluorocyclopropyl)methanone] | 9.20 |
| Nc1ncc(-c2cc(N[C@@]3(CO)CCN(C(=O)C4CC4)C3)nc(N3CCOCC3)n2)cn1 [Example 92, [(3S)-3-{[2′-amino-2-(morpholin-4-yl)-4,5′-bipyrimidin-6-yl]amino}-3-(hydroxymethyl)pyrrolidin-1-yl](cyclopropyl)methanone] | > 10.74 |
| Cn1ccnc1C(=O)N1CC[C@](CO)(Nc2cc(-c3cnc(N)nc3)nc(N3CCOCC3)n2)C1 [Example 73, [(3S)-3-{[2′-amino-2-(morpholin-4-yl)-4,5′-bipyrimidin-6-yl]amino}-3-(hydroxymethyl)pyrrolidin-1-yl](1-methyl-1H-imidazol-2-yl)methanone] | 9.13 |
| CC(C)(C)OC(=O)N1CCC(CO)(Oc2cc(-c3cnc(N)nc3)nc(N3CCOCC3)n2)C1 (racemic) [Example 7, tert-butyl 3-{[2′-amino-2-(morpholin-4-yl)-4,5′-bipyrimidin-6-yl]oxy}-3-(hydroxymethyl)pyrrolidine-1-carboxylate] | 10.24 |
| Nc1ncc(-c2cc(N[C@@]3(CO)CCN(C(=O)[C@@H]4CC4(F)F)C3)nc(N3CCOCC3)n2)cn1 [Example 46, [(3S)-3-{[2′-amino-2-(morpholin-4-yl)-4,5′-bipyrimidin-6-yl]amino}-3-(hydroxymethyl)pyrrolidin-1-yl][(1S)-2,2-difluorocyclopropyl]methanone] | > 10.74 |
| CCOC(=O)N1CC[C@](CO)(Nc2cc(-c3cnc(C)c(F)c3)nc(N3CCOCC3)n2)C1 [Example 129, ethyl (3S)-3-{[6-(5-fluoro-6-methylpyridin-3-yl)-2-(morpholin-4-yl)pyrimidin-4-yl]amino}-3-(hydroxymethyl)pyrrolidine-1-carboxylate] | 8.08 |
| C[C@H]1COCCN1c1nc(N[C@@]2(CF)CCN(C(=O)OC(C)(C)C)C2)cc(-c2cnc(N)nc2)n1 [Example 124, tert-butyl (3S)-3-({2′-amino-2-[(3S)-3-methylmorpholin-4-yl]-4,5′-bipyrimidin-6-yl}amino)-3-(fluoromethyl)pyrrolidine-1-carboxylate] | 10.34 |
| CC(=O)N1CCC[C@](CO)(Nc2nc(N3CCOCC3)nc(-c3cnc(N)nc3)c2F)C1 [Example 153, 1-[(3S)-3-{[2′-amino-5-fluoro-2-(morpholin-4-yl)-4,5′-bipyrimidin-6-yl]amino}-3-(hydroxymethyl)piperidin-1-yl]ethanone] | 9.07 |
| CC(C)[C@H](N)C(=O)N1CC[C@](CO)(Nc2cc(-c3cnc(N)nc3)nc(N3CCOCC3)n2)C1 [Example 51, (2S)-2-amino-1-[(3S)-3-{[2′-amino-2-(morpholin-4-yl)-4,5′-bipyrimidin-6-yl]amino}-3-(hydroxymethyl)pyrrolidin-1-yl]-3-methylbutan-1-one] | 9.21 |
| COCC(=O)N1CCC[C@](CO)(Nc2nc(N3CCOCC3)nc(-c3cnc(N)nc3)c2F)C1 [Example 150, 1-[(3S)-3-{[2′-amino-5-fluoro-2-(morpholin-4-yl)-4,5′-bipyrimidin-6-yl]amino}-3-(hydroxymethyl)piperidin-1-yl]-2-methoxyethanone] | 9.10 |
| C[C@H]1COCCN1c1nc(N[C@@]2(CO)CCN(C(=O)OC3CC3)C2)cc(-c2cnc(N)nc2)n1 [Example 102, cyclopropyl (3S)-3-({2′-amino-2-[(3S)-3-methylmorpholin-4-yl]-4,5′-bipyrimidin-6-yl}amino)-3-(hydroxymethyl)pyrrolidine-1-carboxylate] | > 10.74 |
| Nc1ncc(-c2nc(N[C@@]3(CO)CCN(C(=O)OC4CC4)C3)nc(N3CCOCC3)n2)cn1 [Example 103, cyclopropyl (3S)-3-{[4-(2-aminopyrimidin-5-yl)-6-(morpholin-4-yl)-1,3,5-triazin-2-yl]amino}-3-(hydroxymethyl)pyrrolidine-1-carboxylate] | 9.97 |
| CCOC(=O)N1CC[C@](COC(C)=O)(Nc2cc(-c3cnc(N)nc3)nc(N3CCOCC3)n2)C1 [Example 113, ethyl (3S)-3-[(acetyloxy)methyl]-3-{[2′-amino-2-(morpholin-4-yl)-4,5′-bipyrimidin-6-yl]amino}pyrrolidine-1-carboxylate] | 8.49 |
| Nc1ncc(-c2nc(N3CCOCC3)nc(N[C@@]3(CO)CCCN(C(=O)OCC(F)F)C3)c2F)cn1 [Example 149, 2,2-difluoroethyl (3S)-3-{[2′-amino-5-fluoro-2-(morpholin-4-yl)-4,5′-bipyrimidin-6-yl]amino}-3-(hydroxymethyl)piperidine-1-carboxylate] | > 10.74 |
| Nc1ncc(-c2cc(N[C@@]3(CO)CCN(C(=O)C4(F)CNC4)C3)nc(N3CCOCC3)n2)cn1 [Example 97, [(3S)-3-{[2′-amino-2-(morpholin-4-yl)-4,5′-bipyrimidin-6-yl]amino}-3-(hydroxymethyl)pyrrolidin-1-yl](3-fluoroazetidin-3-yl)methanone] | > 10.74 |
